{"source": "patent US20210308228A1", "about": "“METHOD FOR REDUCING THE OCCURRENCE OF THROMBOSIS OR THROMBOEMBOLISM” (THE BOARD OF REGENTS OF THE UNIVERSITY OF TEXAS SYSTEM, priority 2020, published 2021)", "key": {"thrombin generation": {"system": "thrombin generation", "experiment": "Thrombin generation by calibrated automated thrombogram (CAT) in plasma treated ex vivo", "format": "biochemical, human", "conditions": "for Delta ETP (%) / Delta Lagtime (%) / Delta Peak (%) / Delta Rate (%) / Delta ttPeak (%): enoxaparin 0.13 U/mL, median change vs baseline", "description": "(§1) Citrated plasma samples were thawed immediately prior to use. First, plasma from healthy, uninjured volunteers was used to optimize ex vivo dosing of enoxaparin. […] Given that the inventors spiked plasma with an enoxaparin dose of 0.13 IU/mL, our target anti-FXa level in response to enoxaparin was defined as 0.13 IU/mL. The responses to enoxaparin between healthy uninjured volunteers and trauma patients were compared by treating all plasma samples ex vivo with 0.13 IU/mL of enoxaparin. Trauma patient samples were additionally supplemented with AT using either FFP at a dose of 30% volume or AT concentrate in the form of THROMBATE III®, provided by Grifols, up to 80%, 120%, 150%, 180%, and 200% final concentration based on baseline values. This was done in an effort to improve patient plasma responses to enoxaparin to the levels observed in healthy controls. Similar to our previous work, the inventors chose FFP at a dose of 30% volume to model the effects of transfusing six units of plasma. Calculations were based on the activity (IUs) provided by the manufacturer for a given lot of THROMB ATE III® (approximately 500 IUs/10 mL) and the patient's baseline AT activity levels. AT supplementation was confirmed by measuring AT activity using ACL-TOP. Thrombin generation and anti-FXa levels were measured to assess the response to enoxaparin and supplementation with AT. Healthy volunteer plasma served as an uninjured control for normal AT, anti-FXa, and thrombin generation levels before and after treatment with enoxaparin.\n(§2) AT activity and anti-FXa levels were determined chromogenically using an ACL-TOP Coagulation Analyzer (Instrumentation Laboratory, Bedford Mass.). Thrombin generation was measured using a calibrated automated thrombogram (CAT) (Thermo Fisher Scientific, Waltham Mass.) as previously described. Relevant parameters resulting from CAT analysis include lag time (the time to initiation of thrombin generation; min), peak (the highest amount of thrombin generated; nM), time to peak [ttpeak] (the time it takes to achieve the peak; min), endogenous thrombin potential [ETP] (the total amount of thrombin generated over time; […]), and rate (the velocity of thrombin generation dictated by the slope of the thrombin generation curve; nM/min)."}, "FXa": {"system": "FXa", "experiment": "Anti-FXa levels determined chromogenically (ACL-TOP) in plasma treated ex vivo with enoxaparin", "format": "biochemical, human", "conditions": "for Anti FXa levels (IU/mL): median", "description": "as §1, §2"}, "[1]": {"conditions": "Trauma Patients (N = 100) plasma"}, "[2]": {"conditions": "Healthy Donors (N = 15) plasma, enoxaparin 0.13 U/mL"}, "[3]": {"conditions": "No PE patients (N = 46) plasma, enoxaparin 0.13 U/mL"}, "[4]": {"conditions": "PE patients (N = 54) plasma, enoxaparin 0.13 U/mL"}, "[5]": {"conditions": "Trauma Patients (N = 100) plasma, enoxaparin 0.13 U/mL"}}, "note": "Marks after values point to notes of the source that are not given here.", "data": [{"substance": "enoxaparin", "values": [{"measurement": "Delta ETP (%)", "setting": "thrombin generation; Healthy Donors (N = 15) plasma", "value": "−43", "unit": "%"}, {"measurement": "Delta Lagtime (%)", "setting": "thrombin generation; Healthy Donors (N = 15) plasma", "value": 6.6, "unit": "%"}, {"measurement": "Delta Peak (%)", "setting": "thrombin generation; Healthy Donors (N = 15) plasma", "value": "−55", "unit": "%"}, {"measurement": "Delta Rate (%)", "setting": "thrombin generation; Healthy Donors (N = 15) plasma", "value": "−65", "unit": "%"}, {"measurement": "Delta ttPeak (%)", "setting": "thrombin generation; Healthy Donors (N = 15) plasma", "value": 17, "unit": "%"}, {"measurement": "Delta ETP (%)", "setting": "thrombin generation; No PE patients (N = 46) plasma", "value": "−15.6", "unit": "%"}, {"measurement": "Delta Lagtime (%)", "setting": "thrombin generation; No PE patients (N = 46) plasma", "value": 6.6, "unit": "%"}, {"measurement": "Delta Peak (%)", "setting": "thrombin generation; No PE patients (N = 46) plasma", "value": "−30.6", "unit": "%"}, {"measurement": "Delta Rate (%)", "setting": "thrombin generation; No PE patients (N = 46) plasma", "value": "−45.4", "unit": "%"}, {"measurement": "Delta ttPeak (%)", "setting": "thrombin generation; No PE patients (N = 46) plasma", "value": 13.0, "unit": "%"}, {"measurement": "Delta ETP (%)", "setting": "thrombin generation; PE patients (N = 54) plasma", "value": "−13.2", "unit": "%"}, {"measurement": "Delta Lagtime (%)", "setting": "thrombin generation; PE patients (N = 54) plasma", "value": 7.9, "unit": "%"}, {"measurement": "Delta Peak (%)", "setting": "thrombin generation; PE patients (N = 54) plasma", "value": "−20.7", "unit": "%"}, {"measurement": "Delta Rate (%)", "setting": "thrombin generation; PE patients (N = 54) plasma", "value": "−34.2", "unit": "%"}, {"measurement": "Delta ttPeak (%)", "setting": "thrombin generation; PE patients (N = 54) plasma", "value": 10.7, "unit": "%"}, {"measurement": "Delta ETP (%)", "setting": "thrombin generation; [1]", "value": "−14", "unit": "%"}, {"measurement": "Delta Lagtime (%)", "setting": "thrombin generation; [1]", "value": 7.9, "unit": "%"}, {"measurement": "Delta Peak (%)", "setting": "thrombin generation; [1]", "value": "−24", "unit": "%"}, {"measurement": "Delta Rate (%)", "setting": "thrombin generation; [1]", "value": "−39", "unit": "%"}, {"measurement": "Delta ttPeak (%)", "setting": "thrombin generation; [1]", "value": 12, "unit": "%"}, {"measurement": "reduction in peak thrombin", "setting": "thrombin generation; plasma of patients who did develop PE, ex vivo enoxaparin", "value": 20.7, "unit": "%"}, {"measurement": "median reduction in peak thrombin", "setting": "thrombin generation; plasma of patients who did not develop PE, ex vivo enoxaparin", "value": 30.6, "unit": "%"}, {"measurement": "Rate Anti FXa ≥ 0.13 (number)", "setting": "FXa; [2]", "value": 15}, {"measurement": "Rate Anti FXa ≥ 0.13 (percentage)", "setting": "FXa; [2]", "value": "(100%)"}, {"measurement": "Anti FXa levels (IU/mL)", "setting": "FXa; [2]", "value": 0.16, "unit": "IU/mL"}, {"measurement": "Rate Anti FXa ≥ 0.13 (number)", "setting": "FXa; [3]", "value": 26}, {"measurement": "Rate Anti FXa ≥ 0.13 (percentage)", "setting": "FXa; [3]", "value": "(57%)"}, {"measurement": "Anti FXa levels (IU/mL)", "setting": "FXa; [3]", "value": 0.14, "unit": "IU/mL"}, {"measurement": "Rate Anti FXa ≥ 0.13 (number)", "setting": "FXa; [4]", "value": 24}, {"measurement": "Rate Anti FXa ≥ 0.13 (percentage)", "setting": "FXa; [4]", "value": "(44%)"}, {"measurement": "Anti FXa levels (IU/mL)", "setting": "FXa; [4]", "value": 0.13, "unit": "IU/mL"}, {"measurement": "Rate Anti FXa ≥ 0.13 (number)", "setting": "FXa; [5]", "value": 59}, {"measurement": "Rate Anti FXa ≥ 0.13 (percentage)", "setting": "FXa; Trauma Patients (N = 100) plasma, enoxaparin 0.13 U/mL alone", "value": "(59%)*"}, {"measurement": "Rate Anti FXa ≥ 0.13 (percentage)", "setting": "FXa; Trauma Patients (N = 100) plasma, enoxaparin 0.13 U/mL alone, listed as enoxaparin", "value": 59, "unit": "%"}, {"measurement": "Anti FXa levels (IU/mL)", "setting": "FXa; [5]", "value": 0.13, "unit": "IU/mL"}]}]}
